# Measurements published in patent publication US20230227484A1, “PYRIMIDINE COMPOUND AS AXL INHIBITOR” (NANJING CHIA TAI TIANQING PHARMACEUTICAL CO., LTD., priority 2020, published 2023).
# Experiments:
# [1] = tested on: human acute monocytic leukemia cell MV-4-11 xenograft tumor; assay: In-vivo efficacy of compound for MV4-11 xenograft tumor model of nude mouse; conditions: MV4-11, po, once a day, end of experiment, MV-4-11 xenograft nude mice; for response vs control in vivo at 5 mg/kg/day / inhibition in vivo at 5 mg/kg/day: intragastric 5 mg/kg/d
# Description: Inhibitory effects of a compound and a positive drug on the in-vivo tumor growth of a xenograft tumor model of a nude mouse on human acute monocytic leukemia cell MV-4-11 are tested.
# MV-4-11 cells in a logarithmic growth phase are harvested, resuspended after cell counting, and adjusted in cell concentration to 7.0×10^7 cells/mL. The resuspended solution is injected into the right armpit of the nude mice subcutaneously. Each animal is inoculated with 200 μL (14×10^6 cells) of the suspended solution to establish a MV-4-11 xenograft tumor model. Afer the tumor volume reaches 100-300 mm^3, tumor-bearing mice in good health and similar tumor volume are selected.
# The compound and the positive drug are vortexed with a suitable solvent and then ultrasonicated to completely dissolve the compound. Then, an appropriate volume of citric acid buffer is slowly added, and the mixed solution is vortexed to make the solution mixed uniformly to obtain administrative formulations having concentrations of 0.1, 0.5, and 1 mg-mL^−1.
# Solvent control group: PEG400 & citric acid buffer (20:80, v:v).
# The modeled mice are randomly divided into groups (n=6), and administrated with the relevant compounds and positive drugs on the day of grouping. After 21 days or after the tumor volume of the solvent control group reaches 2000 mm^3, the experiment is terminated (whichever reaches the index first), and the administration volume is 10 mL-kg^−1. Both the compound and the positive drug are administered by gavage, once a day. After the experiment starts, the tumor diameter and animal body weight are measured twice a week, and the tumor volume is calculated.
# The tumor volume(TV) calculation formula is: tumor volume(mm^3)=l×w^2/2,
# The calculation formula of relative tumor volume(RTV) is: RTV=TVt/TVinitial
# The calculation formula of relative tumor proliferation rate (% T/C) is: % T/C=100%×(RTVT/RTVC)
# [2] = Pharmacokinetic study of compounds on ICR mice; format: in vivo; conditions: mouse, po, male ICR mice, plasma; for Cmax / Tmax / half-life: 10 mg-kg^1 by gavage; for AUC(0-t): 10 mg/kg-kg^1 by gavage, read-out: AUC0-24
# Description: Each compound is prepared with DMSO into a 10 mg/mL stock solution.
# Preparation of mixed solvent: Tween 80: PEG400: Water=1:9:90 (v/v/v)
# 450 μl of the compound DMSO stock solution with a concentration of 10 mg/nmL is accurately sucked into a glass bottle, and added with an appropriate volume of DMSO and mixed solvent, wherein a ratio of the solvent in the final formulation is DMSO: mixed solvent (v/v)=10:90. The mixed solution is vortexed (or ultrasonically treated), and dispersed uniformly to obtain 4.5 mL. administration test solutions with a concentration of 1 mg/nL, respectively.
# Male 6-10 week old ICR mice (sourced from: Beijing Vital River Laboratory Animal Technology Co., Ltd.) are taken, 6 mice in each group. The mice are fasted overnight and fed 4 h after the administration. On the day of the experiment, the mice are administrated with 10 mg-kg^1 of compound test solution by gavage. After administration, about 100 μL of blood is harvested from the orbits of the mice at 0 min, 5 mmn, 15 mmn, 30 min, 14 h 2 h, 4 h, 8 h, and 24 h, and placed in EDTA-K2 anticoagulant tubes. The whole blood sample is centrifuged at 1500 to 1600 g for 10 mm, and the plasma obtained by separation is stored in a refrigerator at −40 to −20° C. for biological sample analysis. The blood drug concentration is determined by an LC-MS/MS method.
# A non-compartmental model in Pharsight Phoenix 7.0 is used to calculate pharmacokinetic parameters. The specific results are shown in 5 the table below.
# [3] = read-out: Relative tumor proliferation rate (% T/C)
# [4] = read-out: Tumor growth inhibition rate (TGI %)
Compound,Cmax [2],Tmax [2],half-life [2],AUC(0-t) [2],"response vs control in vivo at 5 mg/kg/day [1, 3]","inhibition in vivo at 5 mg/kg/day [1, 4]","response vs control in vivo at 1 mg/kg/day ([1]; intragastric 1 mg/kg/d, read-out: Relative tumor proliferation rate (% T/C))","inhibition in vivo at 1 mg/kg/day ([1]; intragastric 1 mg/kg/d, read-out: Tumor growth inhibition rate (TGI %))"
"COCc1ccc(Nc2nc(Nc3ccc4c(c3)CC[C@@H](N3CCCC3)CC4)ncc2Cl)c(P(C)(C)=O)c1 [Example 115, (S)-(2-((5-chloro-2-((7-(pyrrolidin-1-yl)-6,7,8,9-tetrahydro-5H-benzo[7]annulen-2-yl)amino)pyrimidin-4-yl)amino)-5-(methoxymethyl)phenyl)dimethylphosphine oxide]",324 ng/mL,2.17 h,–,1300 ng·h/mL,23%,85%,–,–
"CNC(=O)c1cc(F)ccc1Nc1nc(Nc2ccc3c(c2)CC[C@@H](N2CCCC2)CC3)ncc1Cl [Example 19, (S)-2-((5-chloro-2-((7-(pyrrolidin-1-yl)-6,7,8,9-tetrahydro-5H-benzo[7]annulen-2-yl)amino)pyrimidin-4-yl)amino)-5-fluoro-N-methylhenzamide]",342 ng/mL,1 h,183 min,3540 ng·h/mL,–,–,28%,78%
"CP(C)(=O)c1ccccc1Nc1nc(Nc2ccc3c(c2)CC[C@@H](N2CCCC2)CC3)ncc1Cl [Example 10, (S)-(2-((5-chloro-2-((7-(pyrrolidin-1-yl)-6,7,8,9-tetrahydro-5H-benzo[7]annulen-2-yl)amino)pyrimidin-4-yl)amino)phenyl)dimethyl phosphine oxide]",349 ng/mL,0.25 h,200 min,1000 ng·h/mL,3.7%,106%,–,–

# The next lines start with results.
Cmax [2],Tmax [2],half-life [2],AUC(0-t) [2],Compound,"response vs control in vivo at 5 mg/kg/day [1, 3]","inhibition in vivo at 5 mg/kg/day [1, 4]","response vs control in vivo at 1 mg/kg/day ([1]; intragastric 1 mg/kg/d, read-out: Relative tumor proliferation rate (% T/C))","inhibition in vivo at 1 mg/kg/day ([1]; intragastric 1 mg/kg/d, read-out: Tumor growth inhibition rate (TGI %))"
69 ng/mL,1 h,124 min,307 ng·h/mL,"CP(C)(=O)c1c(Nc2nc(Nc3ccc4c(c3)CC[C@@H](N3CCCC3)CC4)ncc2Cl)ccc2nccnc12 [Example 47, (S)-(6-((5-chloro-2-((7-(pyrrolidin-1-yl)-6,7,8,9-tetrahydro-5H-benzo[7]annulen-2-yl)amino)pyrimidin-4-yl)amino)quinoxalin-5-yl)dimethyl phosphine oxide]",15%,94%,–,–
676 ng/mL,1 h,109 min,2200 ng·h/mL,"Cc1ccc(Nc2nc(Nc3ccc4c(c3)CC[C@@H](N3CCCC3)CC4)ncc2Cl)c(P(C)(C)=O)c1 [Example 53, (S)-(2-((5-chloro-2-((7-(pyrrolidin-1-yl)-6,7,8,9-tetrahydro-5H-benzo[7]annulen-2-yl)amino)pyrimidin-4-yl)amino)-5-methylphenyl) dimethyl phosphine oxide]",31%,79%,–,–
